Laboratory results taken from patent US8415469B2, “Compounds and methods for kinase modulation, and indications therefor” (Plexxikon Inc., priority 2005, dated 2013).

Key:
Format in all cases: biochemical
c-Raf-1 = target: T1, c-Raf-1 (Homo sapiens, UniProt P04049); test: AlphaScreen kinase assay, c-Raf-1; settings: read-out: IC50, activity toward kinase c-Raf-1
T1 construct: purchased Upstate Biotechnology

Pyk2 = target: T2, Pyk2 (Homo sapiens, UniProt Q14289); test: AlphaScreen kinase assay, Pyk2; settings: read-out: IC50, activity toward kinase Pyk2
T2 construct: purchased Upstate Biotechnology
T2 sequence (Q14289 whole entry): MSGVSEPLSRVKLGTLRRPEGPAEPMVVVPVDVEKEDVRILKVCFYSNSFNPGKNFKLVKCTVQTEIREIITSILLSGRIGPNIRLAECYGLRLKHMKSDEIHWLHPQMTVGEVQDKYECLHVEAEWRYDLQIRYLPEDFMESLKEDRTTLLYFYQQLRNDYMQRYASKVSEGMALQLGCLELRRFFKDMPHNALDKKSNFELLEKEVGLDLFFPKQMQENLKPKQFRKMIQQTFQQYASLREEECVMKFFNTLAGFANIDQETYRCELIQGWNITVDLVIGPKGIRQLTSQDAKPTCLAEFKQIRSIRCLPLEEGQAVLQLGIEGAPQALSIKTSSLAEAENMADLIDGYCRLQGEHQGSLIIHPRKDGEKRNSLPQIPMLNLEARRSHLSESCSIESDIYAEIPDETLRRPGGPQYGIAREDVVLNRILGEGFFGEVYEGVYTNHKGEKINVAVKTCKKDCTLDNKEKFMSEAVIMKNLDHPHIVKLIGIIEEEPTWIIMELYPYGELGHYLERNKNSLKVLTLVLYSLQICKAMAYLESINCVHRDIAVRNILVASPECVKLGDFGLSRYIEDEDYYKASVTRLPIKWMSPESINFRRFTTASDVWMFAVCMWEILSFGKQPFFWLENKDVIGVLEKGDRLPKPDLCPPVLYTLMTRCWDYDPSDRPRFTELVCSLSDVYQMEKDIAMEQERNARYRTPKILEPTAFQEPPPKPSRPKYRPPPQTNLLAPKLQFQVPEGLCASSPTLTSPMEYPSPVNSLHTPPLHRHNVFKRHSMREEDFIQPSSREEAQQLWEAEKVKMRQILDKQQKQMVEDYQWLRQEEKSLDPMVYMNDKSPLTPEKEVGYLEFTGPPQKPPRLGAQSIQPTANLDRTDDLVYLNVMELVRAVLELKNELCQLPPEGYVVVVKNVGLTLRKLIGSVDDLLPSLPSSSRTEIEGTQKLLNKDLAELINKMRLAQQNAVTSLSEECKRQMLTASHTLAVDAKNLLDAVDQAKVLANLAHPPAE

Src = target: T3, Src (Homo sapiens, UniProt P12931); test: AlphaScreen kinase assay, Src; settings: read-out: IC50, activity toward kinase Src
T3 construct: P1144. pET-N6 BI-PTP SRC V86-L536-X; made in house
T3 sequence (P12931 with tags, fused parts or gaps): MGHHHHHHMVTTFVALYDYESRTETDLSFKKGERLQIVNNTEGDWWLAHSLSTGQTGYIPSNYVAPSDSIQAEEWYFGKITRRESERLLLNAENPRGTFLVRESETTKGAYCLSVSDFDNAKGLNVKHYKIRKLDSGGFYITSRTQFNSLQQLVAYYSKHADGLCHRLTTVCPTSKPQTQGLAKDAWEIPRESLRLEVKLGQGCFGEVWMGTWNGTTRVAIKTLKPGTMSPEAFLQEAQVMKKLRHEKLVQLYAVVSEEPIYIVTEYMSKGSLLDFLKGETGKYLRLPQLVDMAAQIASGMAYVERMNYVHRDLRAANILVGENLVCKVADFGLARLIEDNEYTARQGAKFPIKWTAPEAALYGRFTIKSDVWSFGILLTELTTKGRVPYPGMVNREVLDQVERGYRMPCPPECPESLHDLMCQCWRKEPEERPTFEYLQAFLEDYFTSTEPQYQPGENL

Flt1 = target: T4, Flt1 (Homo sapiens, UniProt P17948); test: AlphaScreen kinase assay, Flt1; settings: read-out: IC50, activity toward kinase Flt1
T4 construct: P1826.pETN6 BI-PTP FLT1 M799-D1165-X WT; His6 (N); made in house; host or cells: E. coli (PTP1B co-expressed)
T4 sequence (P17948 with tags, fused parts or gaps): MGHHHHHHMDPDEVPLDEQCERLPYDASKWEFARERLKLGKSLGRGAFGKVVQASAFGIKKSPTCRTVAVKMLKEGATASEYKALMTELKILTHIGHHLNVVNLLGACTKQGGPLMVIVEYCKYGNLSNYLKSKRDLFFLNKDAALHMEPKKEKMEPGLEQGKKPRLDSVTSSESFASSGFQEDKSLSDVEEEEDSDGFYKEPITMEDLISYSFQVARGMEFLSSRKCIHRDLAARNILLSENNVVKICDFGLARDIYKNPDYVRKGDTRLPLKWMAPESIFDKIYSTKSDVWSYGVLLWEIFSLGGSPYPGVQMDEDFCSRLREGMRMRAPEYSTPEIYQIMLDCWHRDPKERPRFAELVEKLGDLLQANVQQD

Jnk1 = target: T5, Jnk1 (Homo sapiens, UniProt P45983); test: AlphaScreen kinase assay, Jnk1; settings: read-out: IC50, activity toward kinase Jnk1
T5 construct: purchased Upstate Biotechnology
T5 sequence (P45983 whole entry): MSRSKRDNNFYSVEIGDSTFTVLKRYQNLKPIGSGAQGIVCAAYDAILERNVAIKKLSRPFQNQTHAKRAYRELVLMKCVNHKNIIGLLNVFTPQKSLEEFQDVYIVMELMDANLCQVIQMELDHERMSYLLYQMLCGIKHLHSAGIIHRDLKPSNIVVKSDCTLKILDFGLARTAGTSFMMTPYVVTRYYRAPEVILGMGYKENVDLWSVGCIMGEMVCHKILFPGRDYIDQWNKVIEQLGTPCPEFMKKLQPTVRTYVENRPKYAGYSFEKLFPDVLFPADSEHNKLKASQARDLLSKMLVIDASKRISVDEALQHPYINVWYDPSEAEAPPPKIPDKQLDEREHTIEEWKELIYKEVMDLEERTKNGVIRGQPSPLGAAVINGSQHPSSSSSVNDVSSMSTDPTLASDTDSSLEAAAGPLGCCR

Abl = target: T6, Abl (Homo sapiens, UniProt P00519); test: AlphaScreen kinase assay, Abl; settings: read-out: activity toward kinase Abl, IC50
T6 construct: P1121. pET-SPEC BI-PTP Abl G227-V515-X; His6 (N); made in house; host or cells: E. coli (PTP1B co-expressed)
T6 sequence (P00519 with tags, fused parts or gaps): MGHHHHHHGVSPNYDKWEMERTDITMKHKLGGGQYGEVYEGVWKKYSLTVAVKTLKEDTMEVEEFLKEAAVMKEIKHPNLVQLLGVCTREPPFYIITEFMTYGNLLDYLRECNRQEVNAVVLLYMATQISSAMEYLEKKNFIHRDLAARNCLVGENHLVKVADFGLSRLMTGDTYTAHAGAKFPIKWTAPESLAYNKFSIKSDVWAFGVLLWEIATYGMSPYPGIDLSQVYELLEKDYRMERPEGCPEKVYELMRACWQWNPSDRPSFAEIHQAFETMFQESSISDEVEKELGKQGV
Outline: (§1)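 Here, phosphorylation of a biotin-tagged peptide was sensed by proximity of streptavidin donor and antibody-bearing acceptor beads. Test compounds covered 8 concentrations by 1:3 serial dilution of 20 mM DMSO stocks.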

Akt3 = Akt3 (Homo sapiens, UniProt Q9Y243); test: AlphaScreen kinase assay, Akt3; settings: read-out: IC50, activity toward kinase Akt3
Chain of Akt3 (Q9Y243 whole entry): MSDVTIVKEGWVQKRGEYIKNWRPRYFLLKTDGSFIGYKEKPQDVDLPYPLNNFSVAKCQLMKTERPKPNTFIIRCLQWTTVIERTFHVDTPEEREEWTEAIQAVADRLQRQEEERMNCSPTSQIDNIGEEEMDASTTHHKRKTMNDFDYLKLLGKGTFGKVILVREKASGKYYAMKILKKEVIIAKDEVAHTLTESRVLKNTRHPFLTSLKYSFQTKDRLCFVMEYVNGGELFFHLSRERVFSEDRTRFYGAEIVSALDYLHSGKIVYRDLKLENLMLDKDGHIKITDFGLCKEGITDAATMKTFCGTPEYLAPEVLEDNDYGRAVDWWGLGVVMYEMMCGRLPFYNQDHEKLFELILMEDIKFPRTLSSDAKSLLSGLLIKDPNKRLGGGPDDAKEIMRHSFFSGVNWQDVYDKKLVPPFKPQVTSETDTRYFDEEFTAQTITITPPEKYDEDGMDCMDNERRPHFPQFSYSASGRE
Outline: as §1

T1 sequence (P04049 whole entry): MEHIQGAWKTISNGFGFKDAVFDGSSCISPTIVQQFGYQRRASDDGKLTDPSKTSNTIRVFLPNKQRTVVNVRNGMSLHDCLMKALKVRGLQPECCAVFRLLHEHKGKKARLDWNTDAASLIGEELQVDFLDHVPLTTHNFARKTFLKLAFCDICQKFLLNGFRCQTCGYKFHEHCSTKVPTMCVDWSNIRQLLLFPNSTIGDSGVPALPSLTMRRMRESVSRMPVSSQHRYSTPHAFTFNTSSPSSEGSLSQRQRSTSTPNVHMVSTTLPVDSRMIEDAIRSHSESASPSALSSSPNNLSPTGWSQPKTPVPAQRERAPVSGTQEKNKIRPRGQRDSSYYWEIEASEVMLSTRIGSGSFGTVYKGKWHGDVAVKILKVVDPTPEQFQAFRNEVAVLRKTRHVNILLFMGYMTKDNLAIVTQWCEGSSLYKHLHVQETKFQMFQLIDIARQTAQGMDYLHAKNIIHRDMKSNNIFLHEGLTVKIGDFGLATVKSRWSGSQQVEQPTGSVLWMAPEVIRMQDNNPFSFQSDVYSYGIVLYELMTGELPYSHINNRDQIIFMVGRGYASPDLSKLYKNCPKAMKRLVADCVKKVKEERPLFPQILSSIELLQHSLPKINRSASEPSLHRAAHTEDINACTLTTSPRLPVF

Compound | IC50 (c-Raf-1) | IC50 (Pyk2) | IC50 (Src) | IC50 (Flt1) | IC50 (Jnk1) | IC50 (Abl) | IC50 (Akt3)
Oc1cccc(Cc2c[nH]c3ncc(-c4ccsc4)cc23)c1 [Compound P-0056] |  | ≤ 10 µM |  | ≤ 10 µM | ≤ 10 µM | ≤ 10 µM | 
O=C(c1cccc(O)c1)c1c[nH]c2ncccc12 [Compound P-0011] |  |  |  | ≤ 10 µM |  | ≤ 10 µM | 
Cc1ccc(F)cc1C(=O)c1c[nH]c2ncc(-c3ccc(C(N)=O)cc3)cc12 [Compound P-0050] |  |  |  |  |  | ≤ 10 µM | 
O=C(c1cc(O)ccc1F)c1c[nH]c2ncc(-c3ccccc3)cc12 [Compound P-0045] | ≤ 10 µM |  | ≤ 10 µM |  | ≤ 10 µM | ≤ 10 µM | 
CCCS(=O)(=O)Nc1ccc(F)c(C(=O)c2c[nH]c3ncc(-c4cccnc4)cc23)c1F [Compound P-0088, Propane-1-sulfonic acid [2,4-difluoro-3-(5-pyridin-3-yl-1H-pyrrolo[2,3-b]pyridine-3-carbonyl)-phenyl]-amide] | ≤ 10 µM | ≤ 10 µM | ≤ 10 µM | ≤ 10 µM | ≤ 10 µM |  | 
COc1ccc(F)c(C(=O)c2c[nH]c3ncc(-c4cccnc4)cc23)c1 [Compound P-0090] | ≤ 10 µM |  | ≤ 10 µM | ≤ 10 µM | ≤ 10 µM | ≤ 10 µM | 
Oc1cc(O)cc(Cc2c[nH]c3ncc(-c4ccsc4)cc23)c1 [Compound P-0093] |  |  |  |  |  | ≤ 10 µM | 
CCCS(=O)(=O)Nc1ccc(F)c(C(=O)c2c[nH]c3ncccc23)c1F [Compound P-0007, Propane-1-sulfonic acid [2,4-difluoro-3-(1H-pyrrolo[2,3-b]pyridine-3-carbonyl)-phenyl]-amide] | ≤ 10 µM |  | ≤ 10 µM |  |  | ≤ 10 µM | 
O=C(O)/C=C/c1cccc(-c2cnc3[nH]cc(C(=O)c4cc(O)ccc4F)c3c2)c1 [Compound P-0010] | ≤ 10 µM | ≤ 10 µM | ≤ 10 µM |  | ≤ 10 µM | ≤ 10 µM | 
CCCS(=O)(=O)Nc1ccc(F)c(C(=O)c2c[nH]c3ncc(OC)cc23)c1F [Compound P-0806, Propane-1-sulfonic acid [2,4-difluoro-3-(5-methoxy-1H-pyrrolo[2,3-b]pyridine-3-carbonyl)-phenyl]-amide] | ≤ 10 µM | ≤ 10 µM | ≤ 10 µM |  |  | ≤ 10 µM | 
O=C(c1cccc(O)c1)c1c[nH]c2ncc(-c3cccnc3)cc12 [Compound P-0048] |  |  |  |  |  | ≤ 10 µM | ≤ 10 µM
O=C(c1cc(O)ccc1F)c1c[nH]c2ncc(-c3cccs3)cc12 [Compound P-0032] | ≤ 10 µM | ≤ 10 µM | ≤ 10 µM | ≤ 10 µM | ≤ 10 µM | ≤ 10 µM | 
COc1cc(OC)cc(C(=O)c2c[nH]c3ncc(-c4cccc(NS(C)(=O)=O)c4)cc23)c1 [Compound P-1426, N-{3-[3-(3,5-Dimethoxy-benzoyl)-1H-pyrrolo[2,3-b]pyridin-5-yl]-phenyl}-methanesulfonamide] |  |  |  | ≤ 10 µM |  | ≤ 10 µM | 
O=C(c1cc(O)ccc1F)c1c[nH]c2ncc(Br)cc12 [Compound P-0068, (5-Bromo-1H-pyrrolo[2,3-b]pyridin-3-yl)-(2-fluoro-5-hydroxy-phenyl)-methanone] |  |  | ≤ 10 µM | ≤ 10 µM |  | ≤ 10 µM | 
CCCS(=O)(=O)Nc1ccc(F)c(C(=O)c2c[nH]c3ncc(-c4ccccc4)cc23)c1F [Compound P-0636, Propane-1-sulfonic acid [2,4-difluoro-3-(5-phenyl-1H-pyrrolo[2,3-b]pyridine-3-carbonyl)-phenyl]-amide] | ≤ 10 µM | ≤ 10 µM |  | ≤ 10 µM | ≤ 10 µM |  | 
O=C(c1cccc(O)c1F)c1c[nH]c2ncc(-c3ccccc3)cc12 [Compound P-0036, (2-fluoro-3-hydroxy-phenyl)-(5-phenyl-1H-pyrrolo[2,3-b]pyridin-3-yl)-methanone] | ≤ 10 µM |  | ≤ 10 µM | ≤ 10 µM | ≤ 10 µM |  | ≤ 10 µM
O=C(O)/C=C/c1cccc(-c2cnc3[nH]cc(C(=O)c4ccccc4F)c3c2)c1 [Compound P-0033] |  |  |  | ≤ 10 µM | ≤ 10 µM | ≤ 10 µM | 
O=C(c1cccc(O)c1)c1c[nH]c2nccc(Cl)c12 [Compound P-0012] |  |  |  | ≤ 10 µM |  | ≤ 10 µM | 
Cc1c(O)cccc1C(=O)c1c[nH]c2ncc(Br)cc12 [Compound P-0055, (5-Bromo-1H-pyrrolo[2,3-b]pyridin-3-yl)-(3-hydroxy-2-methyl-phenyl)-methanone] | ≤ 10 µM |  | ≤ 10 µM | ≤ 10 µM |  |  | ≤ 10 µM
O=C(c1cccc(O)c1)c1c[nH]c2ncc(-c3cccs3)cc12 [Compound P-0196] |  |  | ≤ 10 µM | ≤ 10 µM | ≤ 10 µM | ≤ 10 µM | ≤ 10 µM

The remaining lines, values ahead:

IC50 (c-Raf-1) | IC50 (Pyk2) | IC50 (Src) | IC50 (Flt1) | IC50 (Jnk1) | IC50 (Abl) | IC50 (Akt3) | Compound
≤ 10 µM | ≤ 10 µM | ≤ 10 µM | ≤ 10 µM |  |  |  | CN(C)S(=O)(=O)Nc1ccc(F)c(Cc2c[nH]c3ncc(-c4cccnc4)cc23)c1F [Compound P-0166]
 |  | ≤ 10 µM | ≤ 10 µM |  | ≤ 10 µM |  | Cc1ccc(S(=O)(=O)NCc2c[nH]c3nccc(-c4cccc(C#N)c4)c23)cc1 [Compound P-0072]
≤ 10 µM |  | ≤ 10 µM |  | ≤ 10 µM | ≤ 10 µM | ≤ 10 µM | O=C(c1cccc(O)c1)c1c[nH]c2ncc(Nc3ccccc3)cc12 [Compound P-0025]
≤ 10 µM |  | ≤ 10 µM | ≤ 10 µM | ≤ 10 µM | ≤ 10 µM |  | CCCCNC(=O)Nc1ccc(F)c(C(=O)c2c[nH]c3ncc(-c4cccnc4)cc23)c1F [Compound P-1318, 1-Butyl-3-[2,4-difluoro-3-(5-pyridin-3-yl-1H-pyrrolo[2,3-b]pyridine-3-carbonyl)-phenyl]-urea]
≤ 10 µM | ≤ 10 µM | ≤ 10 µM | ≤ 10 µM | ≤ 10 µM |  | ≤ 10 µM | O=C(c1ccc(O)cc1Cl)c1c[nH]c2ncccc12 [Compound P-0021]
 |  | ≤ 10 µM |  | ≤ 10 µM | ≤ 10 µM |  | Cc1ccc(F)cc1C(=O)c1c[nH]c2ncc(-c3cccc(N)c3)cc12 [Compound P-0040]
≤ 10 µM |  | ≤ 10 µM |  | ≤ 10 µM | ≤ 10 µM |  | COc1cccc(C(=O)c2c[nH]c3ncc(-c4cccc(NC(C)=O)c4)cc23)c1F [Compound P-1336, N-{3-[3-(2-Fluoro-3-methoxy-benzoyl)-1H-pyrrolo[2,3-b]pyridin-5-yl]-phenyl}-acetamide]
≤ 10 µM |  | ≤ 10 µM | ≤ 10 µM |  | ≤ 10 µM | ≤ 10 µM | O=C(c1cc(O)ccc1F)c1c[nH]c2ncccc12 [Compound P-0005]
 |  | ≤ 10 µM | ≤ 10 µM | ≤ 10 µM | ≤ 10 µM |  | O=C(c1ccccc1F)c1c[nH]c2ncc(-c3ccsc3)cc12 [Compound P-0134]
≤ 10 µM |  | ≤ 10 µM |  | ≤ 10 µM |  |  | CS(=O)(=O)c1cccc(-c2cnc3[nH]cc(C(=O)c4c(F)ccc(F)c4F)c3c2)c1 [Compound P-0102, [5-(3-Methanesulfonyl-phenyl)-1H-pyrrolo[2,3-b]pyridin-3-yl]-(2,3,6-trifluoro-phenyl)-methanone]
 |  | ≤ 10 µM | ≤ 10 µM |  |  | ≤ 10 µM | O=C(c1cccc(O)c1F)c1c[nH]c2ncc(Br)cc12 [Compound P-0067, (5-bromo-1H-pyrrolo[2,3-b]pyridin-3-yl)-(2-fluoro-3-hydroxy-phenyl)-methanone]
 |  | ≤ 10 µM | ≤ 10 µM |  |  |  | Cc1ccccc1C(=O)c1c[nH]c2nccc(-c3ccc(C(N)=O)cc3)c12 [Compound P-0017]
